# Test results from patent US20160287602A1, “METHODS FOR PROMOTING MOTOR NEURON SURVIVAL” (PRESIDENT AND FELLOWS OF HARVARD COLLEGE, priority 2013, published 2016).
# Entries after “also recorded” stand apart in the source; their conditions may differ.
# Tests used:
# [1] = tested on: FACS purified Hb9::GFP MNs; assay: MN survival after trophic factor withdrawal, FACS purified MN culture; format: cell-based, mouse; details: FACS purified MN cultures, trophic factors withdrawn, FIG. 1C
# From the text: ESC-derived MN culture achieves ˜30%-50% MN differentiation efficiency and is therefore highly heterogeneous. To examine whether AKIs specifically act in a cell-autonomous or non-cell-autonomous manner, we established a highly enriched MN culture through FACS purification based on Hb9::GFP reporter expression. […] Next, we asked whether AKIs exert their survival promoting effect only cell-autonomously or whether they also function non-cell-autonomously to rescue MN death. To address this question we produced astrocyte conditioned medium (ACM) by incubating primary murine astrocytes with AKIs (VX-680 and ZM447439). The ACM was then dialyzed using a dialyzer with pore size appropriate for eliminating residual AKIs.
# Hb9::GFP MNs = assay: Number of synapses per MN (synapsin/PSD-95 co-localization, automated imager); format: cell-based, mouse
# From the text: (§1) To examine whether MNs kept alive by AKIs maintain morphological integrity we carried out a series of analyses on surviving MNs in the absence of trophic factors. […] We also used an automated imager to analyze the number of synapses per MN by counting co-localized regions positive for the presynaptic marker synapsin and the postsynaptic marker PSD-95.
# SOD1^G93A/Hb9::GFP MNs = assay: as above; format: cell-based, mouse
# From the text: as §1
# [2] = tested on: synaptophysin in Hb9::GFP MN cultures; assay: Synaptophysin immunoblotting; format: cell-based, mouse
# FACS purified MNs = assay: Area of MN cell bodies in astrocyte co-culture; format: cell-based, mouse
# Protocol: We sought to examine whether AKIs decrease the toxic effect of SOD1^G93A mutant astrocytes. We first cultured primary astrocytes from wild type (WT) and SOD1^G93A mice and plated FACS purified MNs on top. We observed significant cell death when MNs were cultured on mutated astrocytes compared to WT astrocytes. ZM447439 improved both Hb9::GFP and SOD1^G93A/Hb9::GFP MN survival.
# Prkarlb = assay: Prkar1b immunostaining in surviving MNs; format: cell-based, mouse; details: absence of TFs
# MNs = assay: Lentivirus knockdown of Prkarlb, MN survival; format: cell-based, mouse
# From the text: (§2) Next we sought to investigate the mechanism by which AKIs promote MN survival. To evaluate this comprehensively we performed microarray analysis to compare gene expression between MNs cultured with: 1) Trophic factors (+TF), 2) No trophic factors (−TF), 3) VX-680 in the absence of TFs, and 4) ZM447439 in the absence of TFs. […] Gene expression was compared between +TF and −TF, VX-680 and −TF, and ZM447439 and −TF. With a cut off of more than 3 fold difference, there were 85 genes overlapping in all three comparison in Hb9::GFP MNs and 57 in SOD1^G93A/Hb9::GFP MNs. We found 39 overlapping genes when we compared both types of MNs (FIG. 5B). […] We analyzed the shortlist of 39 genes by using DAVID functional annotation bioinformatics microarray analysis software to find the potential pathways involved in MN survival. […] PKA is known to phosphorylate BAD protein, leading to increased cell survival (Jose M. LIZCANO et al., 2000; Julian Downward et al., Nature cell biology 1999; Komaki S et al., Neurosci Lett 2012). […] We further investigated this pathway by lentivirus knockdown of Prkarlb.
# [3] = tested on: Hb9::GFP and SOD1^G93A/Hb9::GFP MNs; assay: Microarray analysis of gene expression in MNs; format: cell-based, mouse; details: compound in the absence of TFs versus -TF
# From the text: as §2
# [4] = tested on: HuES-3/Hb9::GFP human ESC derived MNs; assay: Human ESC derived MN survival after trophic factor withdrawal; format: cell-based; details: trophic factors withdrawn
# From the text: (§3) We generated MNs from a human ESC line expressing an HB9::GFP transgene [HuES-3/Hb9::GFP (Di Giorgio et al., 2008)]. Human ESC derived MN cultures were pre-treated with AraC to eliminate progenitor cells. We induced MN death by again withdrawing trophic factors. […] We also investigated the toxic effect of SOD1^G93A astrocytes on human ESC derived MN survival. We found significant death of human MNs cultured on mutant astrocytes.
# [5] = tested on: human ESC derived MNs on SOD1^G93A astrocytes; assay: Human ESC derived MNs co-cultured with astrocytes; format: cell-based
# From the text: as §3
# [6] = tested on: human iPSC derived MNs (healthy control, SOD1, TDP-43, C90RF72); assay: Human iPSC derived MN survival; format: cell-based
# From the text: We produced MNs from human iPSCs lines including a healthy control, two ALS patients expressing confirmed mutations in SOD1 (Boulting et al., 2011), two with mutations in TDP-43 and one in C90RF72. We treated these cultures with AraC to minimize the number of proliferating progenitors. […] We also examined the effect of SOD 1^G93A astrocytes co-culture on iPSC derived MNs. We found no toxic effect on survival in any of the patient iPSC derived MNs, but we did observe decreased MN survival in the control iPSC derived MNs. […] We also looked at the effect of AKIs on morphology and synapse formation. […] In addition, by immunoblot we observed that ZM447439 enhanced synaptic protein, synaptophysin, expression in both the presence and absence of trophic factors.
# [7] = tested on: wild-type (Hb9::GFP) mouse ESC derived MNs; assay: MN survival after trophic factor withdrawal, mixed culture; format: cell-based; details: in presence of neurotrophic factors; day 7, 14 & 21
structure (smiles),measurement,setting,value
"COc1cc2c(Nc3ccc(NC(=O)c4ccccc4)cc3)ncnc2cc1OCCCN1CCOCC1 [ZM447439, N-[4-[[6-Methoxy-7-[3-(4-morpholinyl)propoxy]-4-quinazolinyl]amino]phenyl]benzamide]",MN survival,[1],rescued MN survival in a dose dependent fashion
same,number of synapses per MN,"Hb9::GFP MNs; absence of trophic factors, Hb9::GFP MNs",preserved the number of synapses
same,number of synapses per MN,Hb9::GFP MNs; neurotrophin containing medium,increased the number of synapses per MN
same,number of synapses per MN,"SOD1^G93A/Hb9::GFP MNs; absence of trophic factors, SOD1^G93A/Hb9::GFP MNs",preserved the number of synapses
same,number of synapses per MN,SOD1^G93A/Hb9::GFP MNs; neurotrophin containing medium,increased the number of synapses per MN
same,expression of synaptic protein synaptophysin,[2],increased expression
same,area of MN cell bodies,FACS purified MNs,increased
same,levels of Prkarlb,Prkarlb,increased levels
same,MN survival on knocking down Prkarlb in the presence of the compound,MNs,effectively decreased MN survival
same,"expression of genes related to synapse formation (Syt1, Snap25 and Sv2c, Map2 and Dcx)",[3],upregulated
same,"human MN survival, comparison of VX-680 and ZM447439",[4]; FIG. 7A,more effective and potent in preventing MN death
same,human MN survival,[4]; AraC pre-treated cultures,rescued human MN death
same,death of human MNs cultured on mutant astrocytes,[5]; SOD1^G93A astrocytes co-culture,completely rescued; also recorded: decreases the toxic effect
same,size of human MN,[5]; co-cultured with both wild-type and mutant astrocytes,significantly increased
same,MN survival,"[6]; all human iPSC derived MN cultures, AraC treated",substantially increase MN survival
same,"MN survival, comparison of VX-680 and ZM447439",[6]; human iPSC derived MN cultures,more effective and potent in rescuing human MN death
same,basal MN death,[7],prevented
